Experimental data as given in patent US11472831B2, “Isotopically labeled bile acid derivatives” (Intercept Pharmaceuticals, Inc., priority 2017, dated 2022).

How the values were obtained:
[1] = statement, no data shown; cited from earlier work
[2] = Clinical study Part 1, Regimen A: oral plasma PK and absolute bioavailability of 25 mg OCA tablet; assay type: in vivo, human
Description: The objectives of this study were to determine the absolute bioavailability of OCA, and evaluate the absorption, distribution, metabolism, and excretion of OCA in healthy male subjects. In addition, the oral pharmacokinetics (PK) of OCA and carbon-14 ([^14C]-OCA, and intravenous (IV) PK of [^14C]-OCA were evaluated.
The PK objectives of Part 1 were to determine the absolute bioavailability of OCA, to define the intravenous (IV) PK of a microtracer dose of [14C] OCA, and to evaluate the oral PK of OCA. In Part 1, subjects were administered the oral dose (Regimen A: 25 mg OCA tablet), followed by the IV microtracer dose (Regimen B: 100 μg [14C]-OCA) 1 hour 45 minutes after the oral dose administration. The 15 minute IV infusion ended at the estimated tmax for the oral dose (2 hours).
To evaluate the oral PK, plasma concentrations of OCA and its conjugates were measured following an oral dose (Regimen A: 25 mg OCA). OCA was rapidly absorbed; the median tmax was 0.5 hrs. Following Cmax, OCA concentration declined rapidly within 4 hours, consistent with the IV profile of OCA. Subsequent OCA concentrations remained, on average, less than 10% of Cmax up to 72 hours post-dose. A prolonged profile of OCA was observed over the course of 72 hours (FIG. 4). This low level persistence of parent OCA is most likely due to deconjugation of glyco-OCA and tauro-OCA by commensal bacteria in the ileum and colon, followed by reabsorption of OCA.
Mean (SD) plasma concentrations over time of total OCA (the sum of OCA, glyco-OCA, and tauro-OCA) are presented in FIG. 15 (Note: Total OCA calculated as sum of OCA, glyco-OCA, and tauro-OCA concentrations at each time point, glyco-OCA, and tauro-OCA concentrations at each time point expressed as mass equivalents of OCA). Consistent with the [^14C]-OCA results, the maximum exposure of total OCA occurred after a meal, consistent with gallbladder release and enterohepatic recirculation, leading to exposure levels being observed up to 72 hours post-dose. Based on overall exposure of total OCA (AUC0-t), glyco-OCA and tauro-OCA are the primary components of exposure, with minimal contribution (less than 10%) from the parent (OCA).
Absolute bioavailability was determined by the ratio of dose normalized AUC for oral dose/dose normalized AUC for IV dose. […] This relatively low value for bioavailability is consistent with the efficient uptake typical of bile acids into the liver, the primary site of action of OCA. PK results were as expected for a bile acid. OCA is rapidly absorbed in the intestine and taken up in the liver, where it is conjugated with glycine and taurine. Glyco-OCA and tauro-OCA were the primary components of exposure, with minimal contribution from the parent (OCA). Enterohepatic recirculation produced an extended profile, with maximum exposure occurring after meals.

[3] = Clinical study Part 2, Regimen C: plasma PK and metabolite profile after 25 mg oral dose of [14C]-OCA; assay type: in vivo, human; settings: for AUC0-t / Cmax / tmax: plasma; for AUC0-t / Cmax: mean (SD); for circulating OCA metabolites other than glyco-OCA and tauro-OCA: metabolite profiling of radioactivity, mass spectrometry, authentic standards
Description: Part 2 also evaluated the extent of distribution of total radioactivity into blood cells, and identified metabolites accounting for more than 10% of circulating total radioactivity. The concentrations of total radioactivity and total OCA in plasma over time are shown in FIG. 16 (Note: Total OCA calculated as sum of OCA, glyco-OCA, and tauro-OCA concentrations at each time point, glyco-OCA, and tauro-OCA concentrations at each time point expressed as mass equivalents of OCA) and FIG. 17 (Note: Total OCA calculated as sum of OCA, glyco-OCA, and tauro-OCA concentrations at each time point, glyco-OCA, and tauro-OCA concentrations at each time point expressed as mass equivalents of OCA. Units for total radioactivity are mass equivalent to OCA (i.e. ng-eq OCA/mL)). […] Two additional OCA metabolites were identified: OCA-3 glucuronide and OCA-24 glucuronide, based on the metabolite profiling of radioactivity, mass spectrometry, and authentic standards for the glucuronide metabolites. […] Following Cmax, OCA concentration declined rapidly within the first 4 hours. The maximum exposure of total OCA, including the conjugates, occurred after meals, consistent with gallbladder release and enterohepatic recirculation, leading to exposure levels being observed over the approximately 4-week sampling period.

[4] = biological target: T1, farnesoid X receptor (FXR) (Homo sapiens, UniProt Q96RI1); settings: background statement; cited from earlier work
T1 sequence (Q96RI1 1-486): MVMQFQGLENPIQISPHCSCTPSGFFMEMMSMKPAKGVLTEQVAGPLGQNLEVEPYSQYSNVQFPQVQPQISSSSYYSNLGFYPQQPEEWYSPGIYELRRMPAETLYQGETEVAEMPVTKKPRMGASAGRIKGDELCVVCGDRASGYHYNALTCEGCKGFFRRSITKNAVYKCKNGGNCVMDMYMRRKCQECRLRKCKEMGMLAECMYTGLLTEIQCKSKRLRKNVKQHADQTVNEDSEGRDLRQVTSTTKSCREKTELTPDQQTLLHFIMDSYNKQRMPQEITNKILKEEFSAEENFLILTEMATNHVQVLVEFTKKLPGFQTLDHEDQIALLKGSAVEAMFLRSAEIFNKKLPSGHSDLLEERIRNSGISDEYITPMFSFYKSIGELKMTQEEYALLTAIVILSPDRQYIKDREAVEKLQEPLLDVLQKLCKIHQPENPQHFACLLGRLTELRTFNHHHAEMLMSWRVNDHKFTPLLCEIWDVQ

[5] = Clinical study Part 2: mass balance recovery of radioactivity in urine and feces after 25 mg oral [14C]-OCA; assay type: in vivo, human
Description: Part 2 also evaluated the extent of distribution of total radioactivity into blood cells, and identified metabolites accounting for more than 10% of circulating total radioactivity. The mean cumulative recovery (cumulative % Ae (Amount excreted)) of radioactivity in the urine and feces of subjects receiving oral [^14C]-OCA is shown in FIG. 18. […] The majority of drug-related material in the feces was recovered within 552 hours of dosing with investigational product. In Part 2 (Mass Balance), the mass balance data confirmed that the primary elimination route of OCA is through the feces. A mean of 87% of administered radioactivity was recovered from the feces over the entire collection period, and a minor percentage (<3%) was recovered from the urine.

[6] = Clinical study Part 1, Regimen B: IV plasma PK of 100 μg microtracer dose of [14C]-OCA; assay type: in vivo, human
Description: The objectives of this study were to determine the absolute bioavailability of OCA, and evaluate the absorption, distribution, metabolism, and excretion of OCA in healthy male subjects. […] Mean plasma concentrations of total radioactivity are shown in FIG. 12, and of [^14C]-OCA in FIG. 13. The highest concentration of radioactivity in plasma was measured after completion of the IV dose, and the concentrations of OCA declined rapidly within 4 hours. After the initial decline, a low-level, prolonged profile of OCA and total radioactivity was observed, as expected due to enterohepatic recirculation.

[7] = rat; single oral administration of [14C] OCA
Description: Preclinical mass balance and radiolabeled single dose PK studies in the rat have examined biliary, urinary, and fecal excretion of OCA and its metabolites.

[8] = plasma, single oral dose 25 mg OCA tablet, mean (SD), N = 5
[9] = plasma, single oral dose 25 mg OCA tablet, median and range, N = 5
[10] = 25 mg oral dose of [14C]-OCA, N = 8
[11] = 25 mg oral dose of [14C]-OCA, median and range, N = 8
[12] = by 504 hours postdose, single oral 25 mg [14C]-OCA
[13] = over the entire collection period
[14] = male, human, plasma [14C]-OCA, 15 minute IV infusion of 100 μg [14C]-OCA, mean (SD), N = 5

CC[C@H]1[C@@H](O)[C@@H]2[C@H](CC[C@]3(C)[C@@H]([C@H](C)CCC(=O)NCC(=O)O)CC[C@@H]23)[C@@]2(C)CC[C@@H](O)C[C@@H]12 [Glyco-OCA]
pharmacological action compared with parent drug (OCA) [1]: equipotent | AUC0-t [2, 8]: 1540 (480.7) hours*ng/mL | Cmax [2, 8]: 57.4 (24.43) ng/mL | tmax [2, 9]: 8.000 (2.00, 36.00) h | AUC0-t [3, 10]: 4690 (2232) ^ hours*ng/mL | Cmax [3, 10]: 73.8 (39.96) ng/mL | tmax [3, 11]: 10.0 (3.00, 36.0) h

CC[C@H]1[C@@H](O)[C@@H]2[C@H](CC[C@]3(C)[C@@H]([C@H](C)CCC(=O)O)CC[C@@H]23)[C@@]2(C)CC[C@@H](O)C[C@@H]12 [OCA, 3α,7α-dihydroxy-6α-ethyl-5β-cholan-24-oic acid]
FXR activity [4]: highly potent FXR modulator | bioavailability ([2]; male, human, plasma, oral, 25 mg, ratio of dose normalized AUC oral 25 mg OCA / IV 100 μg [14C]-OCA, mean (SD), N = 5, read-out: F (absolute bioavailability)): ~17% | tmax ([2]; male, human, plasma, oral 25 mg OCA, read-out: median tmax): 30 min | AUC0-t ([2]; male, human, plasma, single oral dose 25 mg OCA tablet, mean (SD), N = 5, read-out: AUC0-t): 144 ng·h/mL | Cmax ([2]; male, human, plasma, single oral dose 25 mg OCA tablet, mean (SD), N = 5, read-out: Cmax): 80.9 ng/mL | subsequent OCA plasma concentrations relative to Cmax ([2]; on average, after the decline within 4 hours, up to 72 hours post-dose, oral 25 mg OCA): less than 10% | contribution of parent to overall exposure of total OCA (AUC0-t) ([2]; oral 25 mg OCA): less than 10% | tmax [2, 9]: 0.500 (0.50, 2.03) h | tmax ([3]; male, human, 25 mg oral [14C]-OCA, read-out: median tmax): 75 min | AUC0-t ([3]; male, human, 25 mg oral dose of [14C]-OCA, N = 8, read-out: AUC0-t): 475 ng·h/mL | Cmax ([3]; male, human, 25 mg oral dose of [14C]-OCA, N = 8, read-out: Cmax): 63.7 ng/mL | tmax [3, 11]: 1.25 (0.750, 2.50) h

CC[C@H]1[C@@H](O)C2C3CC[C@H]([C@H](C)CCC(=O)O)[C@@]3(C)CCC2[C@@]2(C)CC[C@@H](O[C@@H]3O[C@H](C(=O)O)[C@@H](O)[C@H](O)[C@H]3O)C[C@@H]12 (some centres unmarked) [OCA-3 glucuronide, OCA-3-O-Glucuronide]
circulating OCA metabolites other than glyco-OCA and tauro-OCA [3]: identified

CC[C@H]1[C@@H](O)[C@H]2C3CC[C@H]([C@H](C)CCC(=O)O[C@@H]4O[C@H](C(=O)O)[C@@H](O)[C@H](O)[C@H]4O)[C@@]3(C)CC[C@@H]2[C@@]2(C)CC[C@@H](O)C[C@@H]12 (some centres unmarked) [OCA-24 glucuronide]
circulating OCA metabolites other than glyco-OCA and tauro-OCA [3]: identified

CC[C@H]1[C@@H](O)[C@@H]2[C@H](CC[C@]3(C)[C@@H]([C@H](C)CCC(=O)NCCS(=O)(=O)O)CC[C@@H]23)[C@@]2(C)CC[C@@H](O)C[C@@H]12 [Tauro-OCA]
pharmacological action compared with parent drug (OCA) [1]: equipotent | AUC0-t [2, 8]: 624 (159.6) hours*ng/mL | Cmax [2, 8]: 23.1 (7.412) ^ ng/mL | tmax [2, 9]: 36.000 (2.00, 60.00) h | AUC0-t [3, 10]: 2550 (2155) ^ hours*ng/mL | Cmax [3, 10]: 24.4 (14.21) ng/mL | tmax [3, 11]: 9.03 (2.50, 36.0) h

CC[C@H]1[C@@H](O)C2C3CC[C@H]([C@H](C)CCC(=O)O)[C@@]3(C)CCC2[C@@]2(C)CC[C@@H](O)C[C@@H]12 (some centres unmarked) [[^14C]-OCA, [^14C]OCA]
total radioactivity administered recovered from feces, mean ([5]; at 1152 hours): 87.0% | radioactivity recovered from feces, average [5, 12]: 72.3% | total radioactivity administered recovered from urine and feces, mean [5, 12]: 75.1% | administered radioactivity recovered from the feces, mean [5, 13]: 87% | administered radioactivity recovered from the urine [5, 13]: < 3% | total radioactivity recovered from the urine, average ([5]; single oral 25 mg [14C]-OCA): 2.83% | Vs (volume of distribution) ([6]; 15 minute IV infusion of 100 μg [14C]-OCA, mean (SD), N = 5): 618 (341.9) L | clearance ([6]; male, human, plasma, 15 minute IV infusion of 100 μg [14C]-OCA, mean (SD), N = 5, read-out: CL (total plasma clearance) (converted)): 417 mL/min | Vd ([6]; male, human, plasma, 15 minute IV infusion of 100 μg [14C]-OCA, mean (SD), N = 5, read-out: Vss (volume of distribution at steady state)): 210 L | AUC0-t [6, 14]: 3.86 ng·h/mL | Cmax [6, 14]: 9.71 ng/mL | AUC0-t of [14C]-OCA as share of the total radioactive exposure ([6]; over 72 hours, IV 100 μg [14C]-OCA): approximately 20% | route of excretion of radioactivity [7]: excreted mainly in the feces
